# Columns and labels:
# [1] = test system: Mycobacterium tuberculosis H37Rv; experiment: Minimum inhibitory concentration on Lowenstein-Jensen egg medium, normally sensitive test strain; format: cell-based; settings: per ml of nutrient medium
# [2] = test system: "Atypical mycobacteria" Runyon Grouping 1; experiment: Anti-mycobacterial spectrum of action (MIC), atypical mycobacteria Runyon grouping 1; format: cell-based; settings: modified Difco-Tb-Bouillon
# [3] = test system: "Atypical mycobacteria" Runyon Grouping 3; experiment: Anti-mycobacterial spectrum of action (MIC), atypical mycobacteria Runyon grouping 3; format: cell-based; settings: modified Difco-Tb-Bouillon
# M. bovis Ravenal = experiment: microbe, parasite or virus in culture; format: cell-based; settings: Mycobacterium tuberculosis variant bovis, read-out: MIC, M. bovis Ravenal
# [4] = test system: Mycobacterium tuberculosis H37Rv; experiment: In vivo action in guinea pigs infected with tuberculosis (Tb germ count in lung); settings: 30 mg/kg orally, once daily from 14th day, 3 weeks (5 times per week)
# Method: (§1) The animal experiments were above all carried out with white mice (CFI breed, Winkelmann, Kirchborchen) infected with Mycobacterium tuberculosis H37Rv. After intravenous infection with 10^4 -10^5 germ units/mouse, an oral or subcutaneous treatment was carried out once daily for a period of 2 weeks (that is to say 5 times per week). At predetermined intervals of time (11th, 14th and 17th day after infection) mice from the treatment groups were killed, the spleens were removed and standardised smear preparations were produced from the homogenate; the tubercle germ content in these was evaluated by means of fluorescence microscopy. […] The values obtained are grouped together in 5 rating groups and give a germ count index; the indices denote the following:
# (§2) Index 0 corresponds to a reduction in the germ count of
# (§3) Index 1 corresponds to a reduction in the germ count of
# (§4) Index 2 corresponds to a reduction in the germ count of
# (§5) >40-70% = distinct action
# (§6) Index 3 corresponds to a reduction in the germ count of
# Index 4 corresponds to a reduction in the germ count of
# In addition to the experiments on mice infected with tuberculosis, experiments were carried out analogously on guinea pigs. In this case, the germ count was determined on the lung homogenate. The animals were infected subcutaneously intrainguinally with Mycobacterium tuberculosis H37Rv and were subjected to therapy once daily from the 14th day after infection over a period of 3 weeks, that is to say 5 times per week. The germ counts were determined in the 4th, 5th and 6th week after infection.
# [5] = test system: Mycobacterium tuberculosis H37Rv; experiment: MIC in modified Difco-Tb-Bouillon, normally sensitive strain; format: cell-based
# [6] = test system: "Atypical mycobacteria" Runyon Grouping 4; experiment: Anti-mycobacterial spectrum of action (MIC), atypical mycobacteria Runyon grouping 4; format: cell-based; settings: modified Difco-Tb-Bouillon
# [7] = test system: "Atypical mycobacteria" Runyon Grouping 2; experiment: Anti-mycobacterial spectrum of action (MIC), atypical mycobacteria Runyon grouping 2; format: cell-based; settings: modified Difco-Tb-Bouillon
# [8] = test system: Mycobacterium tuberculosis H37Rv; experiment: In vivo action in mice infected with tuberculosis (Tb germ count in spleen); parameters: species or system white mice (CFI breed); settings: once daily, 2 weeks (5 times per week); for In vivo action, index of reduction in Tb germs, Tb-mice, orally: 100 mg/kg orally; for In vivo action, index of reduction in Tb germs, Tb-mice, subcutaneously: 100 mg/kg subcutaneously
# Method: as §1, §2, §3, §4, §5, §6
# Index 4 corresponds to a reduction in the germ count of […]
# [9] = Table 2, read-out: MIC, normally sensitive H37Rv (Table 2)
# [10] = Table 3, read-out: MIC, M. tuberculosis H37Rv (Table 3)
SMILES,MIC [1] [mg/L],MIC [2] [mg/L],MIC [3] [mg/L],MIC (M. bovis Ravenal) [mg/L],"In vivo action, index of reduction in Tb germs, Tb-guinea pigs, orally [4]","MIC [5, 9] [mg/L]","MIC [5, 10] [mg/L]",MIC [6] [mg/L],MIC [7] [mg/L],"In vivo action, index of reduction in Tb germs, Tb-mice, orally [8]","In vivo action, index of reduction in Tb germs, Tb-mice, subcutaneously [8]"
"O=C(NCc1ccccn1)c1cc([N+](=O)[O-])cc([N+](=O)[O-])c1 [Example 1, N-(pyrid-2-ylmethyl)-3,5-dinitrobenzoic acid amide]",1,6.2,50,3.1,4 (reduction in the germ count of >90% = very good action),1.6,1.6,6.2,6.2,4 (reduction in the germ count of >90% = very good action),3 (reduction in the germ count of >70-90% = good action)
O=C(NCc1cnc2ccccc2c1)c1cc([N+](=O)[O-])cc([N+](=O)[O-])c1 [Example 9],2,3.1,> 100,0.4,4 (reduction in the germ count of >90% = very good action),0.2,0.2,1.6,3.1,1 (reduction in the germ count of >20-40% = trace action),1 (reduction in the germ count of >20-40% = trace action)
O=C(NCCc1ccccn1)c1cc([N+](=O)[O-])cc([N+](=O)[O-])c1 [Example 10],1,,,,3 (reduction in the germ count of >70-90% = good action),,,,,2 (reduction in the germ count of >40-70% = distinct action),2 (reduction in the germ count of >40-70% = distinct action)
O=C(NCc1cccnc1)c1cc([N+](=O)[O-])cc([N+](=O)[O-])c1 [Example 12],32,,,,3 (reduction in the germ count of >70-90% = good action),,,,,2 (reduction in the germ count of >40-70% = distinct action),2 (reduction in the germ count of >40-70% = distinct action)
O=C(NCc1ccncc1)c1cc([N+](=O)[O-])cc([N+](=O)[O-])c1 [Example 13],32,,,,4 (reduction in the germ count of >90% = very good action),,,,,3 (reduction in the germ count of >70-90% = good action),2 (reduction in the germ count of >40-70% = distinct action)
Cc1cccc(CNC(=O)c2cc([N+](=O)[O-])cc([N+](=O)[O-])c2)n1 [Example 14],,6.2,25,3.1,,3.1,3.1,12.5,12.5,,
O=C(NCc1ccc2ccccc2n1)c1cc([N+](=O)[O-])cc([N+](=O)[O-])c1 [Example 15],1,1.6,1.6,0.8,3 (reduction in the germ count of >70-90% = good action),0.2,0.2,1.6,6.2,3 (reduction in the germ count of >70-90% = good action),2 (reduction in the germ count of >40-70% = distinct action)
O=C(NCC1CCCO1)c1cc([N+](=O)[O-])cc([N+](=O)[O-])c1 (stereo not shown) [Example 20],,6.2,100,3.1,,1.6,1.6,6.2,6.2,,
O=C(NCC1CCC=CO1)c1cc([N+](=O)[O-])cc([N+](=O)[O-])c1 (stereo not shown) [Example 22],,1.6,> 100,3.1,,0.4,0.4,1.6,1.6,,
CC(NC(=O)c1cc([N+](=O)[O-])cc([N+](=O)[O-])c1)c1ccccn1 (stereo not shown) [Example 29],2,3.1,100,3.1,,1.6,1.6,3.1,3.1,4 (reduction in the germ count of >90% = very good action),3 (reduction in the germ count of >70-90% = good action)

# Reference: US3995044A, “Pyridine carboxylic acid amides for mycobacterium infections” (priority 1974, dated 1976)
